From US20230295145A1, “PYRROLIDINE DERIVATIVES AND METHODS OF USE” (Genentech, Inc., priority 2020, published 2023)
Where two headings read alike, the source gives them in different places.

Experiments:
[1] = tested on: HCC366; experiment: Cell Viability Assay (CellTiter-Glo); assay type: cell-based; settings: 10 μM, 5 days
Experimental: (§1) Cell lines were cultured in RPMI-1640, 5% fetal bovine serum, and 2 mM glutamine in a humidified incubator maintained at 37° C. with 5% CO2. Cells were assessed with a Vi-CELL Cell Viability Analyzer (Beckman Coulter; Brea, CA); viability of at least 90% was required for screening. A Multidropä Combi Reagent Dispenser (Thermo Scientific; Waltham, MA) was used to plate cells into Falcons^â 384-well, black, clear-bottom plates (Catalog No. 353962; Corning; Tewksbury, MA) using seeding densities previous determined to achieve approximately 80% confluence at the final time point of the assay. The compounds were prepared at 1000× in advance using an Echo 555 liquid handler (Labcyte; Sunnyvale, CA) and stored in −80° C. until the day of compound addition. On the following day, cells were treated with compounds at final assay concentration 1 uM and 10 uM using a Bravo Automated Liquid-Handling Platform (Agilent; Santa Clara, CA). After 5 days, 25 mL CellTiter-Glo^â reagent was added using a MultiFloä Microplate Dispenser (BioTek; Winooski, VT). Cell lysis was induced by mixing for 30 minutes on an orbital shaker; plates were then incubated at room temperature for 10 minutes to stabilize the luminescent signal. Luminescence was read by a 2104 EnVision^â Multilabel Plate Reader (PerkinElmer; Waltham, MA).
(§2) The data was processed using Genedata Screener^â, Version 15 (Genedata; Basel, Switzerland) to assess compound effects on viability. Compound treated wells were normalized to the median value of 14 DMSO control wells on the same 384 well plate.

[2] = molecular target: T1, VHL (Homo sapiens, UniProt P40337); experiment: VHL HEK-293 BRET Assay (VHL NanoBRET Target Engagement Assay); assay type: cell-based; settings: IC50 values measured in the presence of digitonin; HEK 293 RT VHL-NanoLuc stable cells; read-out: IC50 + Digi (μM)*
T1 construct: expressed in transfected cells

[3] = molecular target: T1, VHL; experiment: as above; assay type: cell-based; settings: HEK 293 RT VHL-NanoLuc stable cells; read-out: IC50
Experimental: The VHL NanoBRET™ Target Engagement Assay analyzes the apparent affinity of test compounds for VHL in cells by competitive displacement of a VHL NanoBRET™ tracer reversibly bound to a NanoLuc® VHL fusion protein stably expressed in the cells.
Test compounds were transferred to the assay plate (384 Well White Non-Binding Corning Assay Plates (Corning-3574)) using an Echo 555 Liquid Handler (Labcyte) in 2.5 nL increments and, as appropriate, intermediate stock concentrations of compounds, in order to prepare a titration series. 50 nL of control compound (10 mM; parental unlabeled VHL antagonist; see structure below) and 50 nL of DMSO (negative control) were dispensed into the appropriate control wells. DMSO was backfilled to a final volume of 50 nL as required. 50 nl per well of 1 mM VHL NanoBRET™ Tracer in DMSO (NanoBRET™ Tracer-PEG2-590 (see structure below)) was transferred into each well using an Echo 555 (ultimately yielding a final concentration of 1 uM). HEK 293 RT VHL-NanoLuc® stable cells were cultured in DMEM High Glucose with Pyruvate, 10% fetal bovine serum, 2 mg/mL of Geneticin Selective Antibiotic (50 mg/mL) and 2 mM HEPES (1 M). Cells were seeded in Opti-MEM (Life Technologies-11058-021), 1.7×10^5 cells/mL, 40 μl per well into the assay plate, centrifuged at 500 rpm for 30 seconds and incubated for 2 hours. Max Signal control wells consisted of DMSO only treated wells. Minimum Signal control wells contained of 10 uM parental unlabeled VHL antagonist (control compound—see structure below). 3× Complete Substrate plus Inhibitor Solution was prepared in Opti-MEM (consists of a 1:166 dilution of NanoBRET™ Nano-Glo® Substrate plus a 1:500 dilution of Extracellular NanoLuc® Inhibitor in Opti-MEM), and 20 ul was dispensed into each well of the 384-well plate and centrifuged at 1000 rpm for 1 minute, then incubated for 2 minutes at room temperature. Background Signal control wells were prepared without tracer for background correction steps.
Plates were read using a PerkinElmer Envision Reader (model 2104-0020) equipped with Luminescence option (Mirror: BRET2 Enh (PE Barcode 659), Emission Filter: Omega 610LP (Barcode 504), 2nd Emission Filter: Umbelliferone 460 (Barcode 207), Measurement height: 6.5 mm, Measurement time: 1 s). The raw BRET ratio values were calculated by dividing the acceptor emission value (610 nm) by the donor emission value (460 nm) for each sample. To correct for background, the BRET ratio in the absence of tracer (average of no-tracer control samples) was subtracted from the BRET ratio of each sample. Raw BRET units were converted to milliBRET units (mBU) by multiplying each raw BRET value by 1,000. The normalized NanoBRET™ signal was calculated relative to the Max Signal control wells (DMSO treated control wells) and the Minimum Signal control wells. Percentage inhibition was calculated relative to the Minimum Signal control and Maximum Signal control wells. IC50 values were derived by four parameter curve fitting using the Robust method.

[4] = tested on: NCI-H23; experiment: Cell Viability Assay (CellTiter-Glo); assay type: cell-based; settings: 5 days
Experimental: as §1, §2

[5] = tested on: NCI-H2030; experiment: Cell Viability Assay (CellTiter-Glo); assay type: cell-based; settings: 5 days
Experimental: as §1, §2

[6] = tested on: PANC-1; experiment: Cell Viability Assay (CellTiter-Glo); assay type: cell-based; settings: 5 days
Experimental: as §1, §2

[7] = tested on: CAL-120; experiment: Cell Viability Assay (CellTiter-Glo); settings: 5 days
Experimental: as §1, §2

[8] = tested on: NCI-H1650; experiment: Cell Viability Assay (CellTiter-Glo); assay type: cell-based; settings: 10 μM, 5 days
Experimental: (§3) Cell lines were cultured in RPMI-1640, 5% fetal bovine serum, and 2 mM glutamine in a humidified incubator maintained at 37° C. with 5% CO2. Cells were assessed with a Vi-CELL Cell Viability Analyzer (Beckman Coulter; Brea, CA); viability of at least 90% was required for screening. A Multidropä Combi Reagent Dispenser (Thermo Scientific; Waltham, MA) was used to plate cells into Falcons^â 384-well, black, clear-bottom plates (Catalog No. 353962; Corning; Tewksbury, MA) using seeding densities previous determined to achieve approximately 80% confluence at the final time point of the assay. The compounds were prepared at 1000× in advance using an Echo 555 liquid handler (Labcyte; Sunnyvale, CA) and stored in −80° C. until the day of compound addition. On the following day, cells were treated with compounds at final assay concentration 1 uM and 10 uM using a Bravo Automated Liquid-Handling Platform (Agilent; Santa Clara, CA). After 5 days, 25 mL CellTiter-Glo^â reagent was added using a MultiFloä Microplate Dispenser (BioTek; Winooski, VT). Cell lysis was induced by mixing for 30 minutes on an orbital shaker; plates were then incubated at room temperature for 10 minutes to stabilize the luminescent signal. Luminescence was read by a 2104 EnVision^â Multilabel Plate Reader (PerkinElmer; Waltham, MA). […]

[9] = tested on: MCF-7; experiment: Cell Viability Assay (CellTiter-Glo); assay type: cell-based; settings: 10 μM, 5 days
Experimental: as §3

[10] = tested on: KPL-4; experiment: Cell Viability Assay (CellTiter-Glo); assay type: cell-based; settings: 10 μM, 5 days
Experimental: as §3

[11] = tested on: MDA-MB-436; experiment: Cell Viability Assay (CellTiter-Glo); assay type: cell-based; settings: 10 μM, 5 days
Experimental: as §3

[12] = tested on: HCC1438; experiment: Cell Viability Assay (CellTiter-Glo); assay type: cell-based; settings: 10 μM, 5 days
Experimental: as §3

[13] = tested on: ABC-1; experiment: Cell Viability Assay (CellTiter-Glo); assay type: cell-based; settings: 10 μM, 5 days
Experimental: as §1, §2

[14] = tested on: KPL-1; experiment: Cell Viability Assay (CellTiter-Glo); assay type: cell-based; settings: 10 μM, 5 days
Experimental: as §1, §2

[15] = tested on: KNS-62; experiment: Cell Viability Assay (CellTiter-Glo); assay type: cell-based; settings: 10 μM, 5 days
Experimental: as §1, §2

T1 sequence (P40337 whole entry): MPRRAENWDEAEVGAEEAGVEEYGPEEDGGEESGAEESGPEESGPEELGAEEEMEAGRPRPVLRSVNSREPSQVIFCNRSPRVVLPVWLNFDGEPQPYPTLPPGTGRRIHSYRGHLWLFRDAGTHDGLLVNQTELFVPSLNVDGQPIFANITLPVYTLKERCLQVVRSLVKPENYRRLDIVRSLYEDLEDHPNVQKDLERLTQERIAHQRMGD

| IC50 [2] [µM] | IC50 [3] [µM] | Structure (SMILES) | Normalized viability % DMSO [1] [% DMSO] | Normalized viability % DMSO ([5]; 10 μM) [% DMSO] | Normalized viability % DMSO ([6]; 10 μM) [% DMSO] | other results |
| --- | --- | --- | --- | --- | --- | --- |
| 6.66 | 0.135 | CC(C)(NC(=O)[C@@H]1C[C@@H](O)CN1C(=O)[C@@H](n1cc(C2CC2)nn1)C(C)(C)C)C(=O)Nc1ccccc1 [Compound 480, (2S,4R)-N-(2-anilino-1,1-dimethyl-2-oxo-ethyl)-1-[(2S)-2-(4-cyclopropyltriazol-1-yl)-3,3-dimethyl-butanoyl]-4-hydroxy-pyrrolidine-2-carboxamide] |  | 5.6 | 22.7 | Normalized viability % DMSO ([4]; 1 μM): 37.0 % DMSO; Normalized viability % DMSO ([4]; 10 μM): 8.2 % DMSO; Normalized viability % DMSO [8]: 12.6 % DMSO; Normalized viability % DMSO ([5]; 1 μM): 32.4 % DMSO; Normalized viability % DMSO [9]: 13.7 % DMSO; Normalized viability % DMSO [10]: 38.4 % DMSO; Normalized viability % DMSO [11]: 23.6 % DMSO; Normalized viability % DMSO [12]: 11.3 % DMSO; Normalized viability % DMSO ([6]; 1 μM): 38.1 % DMSO; Normalized viability % DMSO [13]: 38.1 % DMSO; Normalized viability % DMSO [14]: 47.9 % DMSO; Normalized viability % DMSO [15]: 8.7 % DMSO; Normalized viability % DMSO ([7]; 10 μM): 15.5 % DMSO |
| 5.56 | 3.68 | CCC(CNC(=O)[C@@H]1C[C@@H](O)CN1C(=O)[C@@H](n1cc(C2CC2)nn1)C(C)(C)C)Oc1cccc(C(F)(F)F)c1 (stereo partly drawn) [Compound 493, (2S,4R)-1-[(2S)-2-(4-cyclopropyltriazol-1-yl)-3,3-dimethyl-butanoyl]-4-hydroxy-N-[2-[3-(trifluoromethyl)phenoxy]butyl]pyrrolidine-2-carboxamide] |  |  | 51.8 |  |
| 2.52 | 0.55 | CC(Cc1ccc(Br)cc1F)NC(=O)[C@@H]1C[C@@H](O)CN1C(=O)[C@@H](n1cc(C2CC2)nn1)C(C)(C)C (stereo partly drawn) [Compound 556, (2S,4R)-N-[2-(4-bromo-2-fluoro-phenyl)-1-methyl-ethyl]-1-[(2S)-2-(4-cyclopropyltriazol-1-yl)-3,3-dimethyl-butanoyl]-4-hydroxy-pyrrolidine-2-carboxamide] |  | 50.4 |  |  |
| 1.64 | 0.928 | CC(C)(NC(=O)[C@@H]1C[C@@H](O)CN1C(=O)[C@@H](n1cc(C2CC2)nn1)C(C)(C)C)c1cccc(C#N)c1 [Compound 561, (2S,4R)-N-[1-(3-cyanophenyl)-1-methyl-ethyl]-1-[(2S)-2-(4-cyclopropyltriazol-1-yl)-3,3-dimethyl-butanoyl]-4-hydroxy-pyrrolidine-2-carboxamide] | 12.5 |  |  |  |
| 1.35 | 0.829 | CCC(NC(=O)[C@@H]1C[C@@H](O)CN1C(=O)[C@@H](n1cc(C2CC2)nn1)C(C)(C)C)c1noc(-c2cccc(Br)c2)n1 (stereo partly drawn) [Compound 617, (2S,4R)-N-[1-[5-(3-bromophenyl)-1,2,4-oxadiazol-3-yl]propyl]-1-[(2S)-2-(4-cyclopropyltriazol-1-yl)-3,3-dimethyl-butanoyl]-4-hydroxy-pyrrolidine-2-carboxamide] |  |  | 69.8 |  |
| 7.47 | 18.2 | CNC(=O)[C@@H]1C[C@@H](O)CN1C(=O)[C@@H](n1cc(CN2CCC(C(=O)OC)CC2)nn1)C(C)(C)C [Compound 1059, methyl 1-[[1-[(1S)-1-[(2S,4R)-4-hydroxy-2-(methylcarbamoyl)pyrrolidine-1-carbonyl]-2,2-dimethyl-propyl]triazol-4-yl]methyl]piperidine-4-carboxylate] |  | 12.7 |  | Normalized viability % DMSO ([7]; 10 μM): 18.1 % DMSO |

More lines, now with the values behind:

| Structure (SMILES) | IC50 [2] [µM] | IC50 [3] [µM] | Normalized viability % DMSO [1] [% DMSO] | Normalized viability % DMSO ([5]; 10 μM) [% DMSO] | Normalized viability % DMSO ([6]; 10 μM) [% DMSO] | other results |
| --- | --- | --- | --- | --- | --- | --- |
| CC(C)(C)[C@@H](C(=O)N1C[C@H](O)C[C@H]1C(=O)N[C@H]1CC[C@H](c2nc3ccccc3o2)CC1)n1cc(C2CC2)nn1 [Compound 106, (2S,4R)-N-[4-(1,3-benzoxazol-2-yl)cyclohexyl]-1-[(2S)-2-(4-cyclopropyltriazol-1-yl)-3,3-dimethyl-butanoyl]-4-hydroxy-pyrrolidine-2-carboxamide] | 4.41 | 3.37 | 6.0 |  |  |  |
| CC(C)(C)[C@@H](C(=O)N1C[C@H](O)C[C@H]1C(=O)NC1CC12CCc1cc(Br)ccc12)n1cc(C2CC2)nn1 (stereo partly drawn) [Compound 266, (2S,4R)-N-(5′-bromospiro[cyclopropane-2,1′-indane]-1-yl)-1-[(2S)-2-(4-cyclopropyltriazol-1-yl)-3,3-dimethyl-butanoyl]-4-hydroxy-pyrrolidine-2-carboxamide] | 9.5 | 3.69 |  | 31.8 | 27.6 | Normalized viability % DMSO ([4]; 10 μM): 37.6 % DMSO; Normalized viability % DMSO ([7]; 10 μM): 46.4 % DMSO |
| CC(C)(C)[C@@H](C(=O)N1C[C@H](O)C[C@H]1C(=O)NC1CN(c2ccncc2)C1)n1cc(C2CC2)nn1 [Compound 445, (2S,4R)-1-[(2S)-2-(4-cyclopropyltriazol-1-yl)-3,3-dimethyl-butanoyl]-4-hydroxy-N-[1-(4-pyridyl)azetidin-3-yl]pyrrolidine-2-carboxamide] | 22.3 | 26.7 | 5.2 |  |  |  |
| Cc1ccc(N2CCC[C@H]2CNC(=O)[C@@H]2C[C@@H](O)CN2C(=O)[C@@H](n2cc(C3CC3)nn2)C(C)(C)C)cc1 [Compound 462, (2S,4R)-1-[(2S)-2-(4-cyclopropyltriazol-1-yl)-3,3-dimethyl-butanoyl]-4-hydroxy-N-[[(2S)-1-(p-tolyl)pyrrolidin-2-yl]methyl]pyrrolidine-2-carboxamide] | 5.35 | 2.82 | 11.3 |  |  |  |
| CNC(=O)[C@@H]1C[C@@H](O)CN1C(=O)[C@@H](n1cc(CN(C)c2ccccc2)nn1)C(C)(C)C [Compound 842, (2S,4R)-1-[(2S)-3,3-dimethyl-2-[4-[(N-methylanilino)methyl]triazol-1-yl]butanoyl]-4-hydroxy-N-methyl-pyrrolidine-2-carboxamide] |  |  |  |  |  | Normalized viability % DMSO ([7]; 1 μM): 18.5 % DMSO |
| CNC(=O)[C@@H]1C[C@@H](O)CN1C(=O)[C@@H](n1cc(-c2cccc(C(F)(F)F)c2)nn1)C(C)(C)C [Compound 974, (2S,4R)-1-[(2S)-3,3-dimethyl-2-[4-[3-(trifluoromethyl)phenyl]triazol-1-yl]butanoyl]-4-hydroxy-N-methyl-pyrrolidine-2-carboxamide] |  |  |  |  |  | Normalized viability % DMSO ([5]; 1 μM): 15.3 % DMSO |
